Each structure is given as a SMILES string. Values after ≈ are worked out from the molar mass of the structure shown.

What all share (assay type): functional
The test system of experiment [1] is Streptococcus pyogenes. In words: Antibacterial activity against erythromycin-resistant Streptococcus pyogenes 2 clinical isolate assessed as bacterial growth inhibition incubated for 20 hrs by CLSI based broth microdilution method. In general terms: In broth dilution the organism is exposed to a series of concentrations in liquid medium.
In experiment [2] the test system is Staphylococcus epidermidis. Put plainly: Antibacterial activity against penicillin-resistant Staphylococcus epidermidis clinical isolate assessed as bacterial growth inhibition incubated for 20 hrs by CLSI based broth microdilution method.
Experiment [3] deals with Staphylococcus aureus. In words: Antibacterial activity against Staphylococcus aureus clinical isolate assessed as bacterial growth inhibition incubated for 20 hrs by CLSI based broth microdilution method.
Experiment [4] relates to Staphylococcus aureus. In words: Antibacterial activity against penicillin-resistant Staphylococcus aureus ATCC31007 assessed as bacterial growth inhibition incubated for 20 hrs by CLSI based broth microdilution method.
Experiment [5] has as its system Staphylococcus aureus. In words: Antibacterial activity against methicillin-resistant Staphylococcus aureus ATCC43300 assessed as bacterial growth inhibition incubated for 20 hrs by CLSI based broth microdilution method.
Experiment [6] deals with Klebsiella pneumoniae. Put plainly: Antibacterial activity against Klebsiella pneumoniae ATCC BAA-1902 assessed as bacterial growth inhibition incubated for 20 hrs by CLSI based broth microdilution method.
For experiment [7], the system named is Acinetobacter baumannii. In words: Antibacterial activity against Acinetobacter baumannii ATCC19606 assessed as bacterial growth inhibition incubated for 20 hrs by CLSI based broth microdilution method.
The subject of experiment [8] is Escherichia coli. In words: Antibacterial activity against wild-type Escherichia coli BW25113 assessed as bacterial growth inhibition incubated for 20 hrs by CLSI based broth microdilution method.
The test system of experiment [9] is Escherichia coli. In words: Antibacterial activity against penicillin-susceptible Escherichia coli ATCC25922 assessed as bacterial growth inhibition incubated for 20 hrs by CLSI based broth microdilution method.
Experiment [10] relates to Enterococcus faecium. In words: Antibacterial activity against vancomycin-susceptible Enterococcus faecium ATCC19434 assessed as bacterial growth inhibition incubated for 20 hrs by CLSI based broth microdilution method.
Experiment [11] deals with Enterococcus faecalis. In words: Antibacterial activity against vancomycin-susceptible Enterococcus faecalis ATCC29212 assessed as bacterial growth inhibition incubated for 20 hrs by CLSI based broth microdilution method.
Experiment [12] deals with Streptococcus pyogenes. In words: Antibacterial activity against erythromycin-susceptible Streptococcus pyogenes 1 assessed as bacterial growth inhibition incubated for 20 hrs by CLSI based broth microdilution method.
The test system of experiment [13] is Staphylococcus aureus. Put plainly: Antibacterial activity against erythromycin-susceptible Staphylococcus aureus ATCC25923 assessed as bacterial growth inhibition incubated for 20 hrs by CLSI based broth microdilution method.
The subject of experiment [14] is Bacillus pumilus. Put plainly: Antibacterial activity against penicillin-susceptible Bacillus pumilus CMCC63202 assessed as bacterial growth inhibition incubated for 20 hrs by CLSI based broth microdilution method.
Experiment [15] concerns Bacillus subtilis. In words: Antibacterial activity against penicillin-susceptible Bacillus subtilis ATCC9372 assessed as bacterial growth inhibition incubated for 20 hrs by CLSI based broth microdilution method.
Experiment [16] relates to Enterococcus faecalis. In words: Antibacterial activity against vancomycin-resistant Enterococcus faecalis ATCC51299 assessed as bacterial growth inhibition incubated for 20 hrs by CLSI based broth microdilution method.
The test system of experiment [17] is Enterococcus faecium. In words: Antibacterial activity against vancomycin-resistant Enterococcus faecium ATCC51559 assessed as bacterial growth inhibition incubated for 20 hrs by CLSI based broth microdilution method.

What is called MIC is the lowest concentration that inhibits growth of the organism. For `COc1cc(/C=C/c2cc(-c3ccccc3)c[n+](C)c2-c2ccccc2)cc(OC)c1OC.[I-]`, the MIC was 16 µg/mL in experiment [1]; greater than 64 µg/mL in experiment [2]; 16 µg/mL in experiment [3]; greater than 64 µg/mL in experiment [4]; 64 µg/mL in [5]; greater than 64 µg/mL in [6]. Also, the MIC in experiment [7] is greater than 64 µg/mL; in [8], greater than 64 µg/mL; in experiment [9], greater than 64 µg/mL; in [10], greater than 64 µg/mL; in [11] it was greater than 64 µg/mL; in experiment [12] it was 16 µg/mL. Further, the MIC in experiment [13] was greater than 64 µg/mL; in experiment [14], 64 µg/mL; in [15], 16 µg/mL; in [16], greater than 64 µg/mL; in experiment [17], greater than 64 µg/mL.
In the case of `C[n+]1cc(-c2ccccc2)cc(/C=C/c2ccccc2[N+](=O)[O-])c1-c1ccccc1.I`, the MIC was 16 µg/mL in experiment [1]; 64 µg/mL in [2]; 32 µg/mL in experiment [3]; greater than 64 µg/mL in [4]; 32 µg/mL in experiment [5]; greater than 64 µg/mL in [6]. Besides, the MIC in [7] is 64 µg/mL; in [8], greater than 64 µg/mL; in experiment [9], greater than 64 µg/mL; in experiment [10], greater than 64 µg/mL; in [11] it was greater than 64 µg/mL; in experiment [12] it was 16 µg/mL. Also, the MIC is 8 µg/mL in experiment [13]; 64 µg/mL in experiment [14]; 16 µg/mL in [15]; greater than 64 µg/mL in experiment [16]; greater than 64 µg/mL in [17].
Turning to `CC[C@H]1OC(=O)[C@H](C)[C@@H](O[C@H]2C[C@@](C)(OC)[C@@H](O)[C@H](C)O2)[C@H](C)[C@@H](O[C@@H]2O[C@H](C)C[C@H](N(C)C)[C@H]2O)[C@](C)(O)C[C@@H](C)CN(C)[C@H](C)[C@@H](O)[C@]1(C)O` [AZITHROMYCIN], the minimal inhibitory concentration (MIC) is greater than 64 µg/mL in [1]; greater than 64 µg/mL in experiment [2]; greater than 64 µg/mL in experiment [3]; greater than 64 µg/mL in experiment [4]; greater than 64 µg/mL in [5]; 64 µg/mL (≈ 85.4 µM) in experiment [6]. In addition, the MIC in [7] is 2 µg/mL (≈ 2.67 µM); in [8] it was greater than 64 µg/mL; in experiment [9], 64 µg/mL (≈ 85.4 µM); in [10], 8 µg/mL (≈ 10.7 µM); in experiment [11] it was 1 µg/mL (≈ 1.34 µM); in experiment [12] it was 0.03 µg/mL (≈ 0.0401 µM). Further, the minimum inhibitory concentration (MIC) in [13] was 0.25 µg/mL (≈ 0.334 µM); in experiment [14] it was 0.5 µg/mL (≈ 0.668 µM); in experiment [15], 0.25 µg/mL (≈ 0.334 µM); in [16] it was greater than 64 µg/mL; in experiment [17], greater than 64 µg/mL.
`CN(C)[C@@H]1C(O)=C(C(N)=O)C(=O)[C@@]2(O)C(O)=C3C(=O)c4c(O)cccc4[C@@](C)(O)[C@H]3C[C@@H]12` [TETRACYCLINE]: the minimal inhibitory concentration (MIC) in experiment [1] was 64 µg/mL (≈ 144 µM); in [2] it was 32 µg/mL (≈ 72 µM); in experiment [3] it was 1 µg/mL (≈ 2.25 µM); in experiment [4], 64 µg/mL (≈ 144 µM); in [5], 0.5 µg/mL (≈ 1.13 µM); in [6], 32 µg/mL (≈ 72 µM). In addition, the MIC was found to be 8 µg/mL (≈ 18 µM) in experiment [7]; 2 µg/mL (≈ 4.5 µM) in experiment [8]; 0.5 µg/mL (≈ 1.13 µM) in experiment [9]; 2 µg/mL (≈ 4.5 µM) in experiment [10]; 64 µg/mL (≈ 144 µM) in [11]; 1 µg/mL (≈ 2.25 µM) in [12]. For the same compound, the MIC in [13] worked out at 0.5 µg/mL (≈ 1.13 µM); in experiment [14], 64 µg/mL (≈ 144 µM); in [15], 0.5 µg/mL (≈ 1.13 µM); in experiment [16], 2 µg/mL (≈ 4.5 µM); in experiment [17], 2 µg/mL (≈ 4.5 µM).
On to `CCc1ccc(/C=C/c2cc(-c3ccc(C(C)(C)C)cc3)[n+](C)cc2-c2ccccc2C)cc1.[I-]`, for which the MIC in experiment [1] is 4 µg/mL; in experiment [2], 1 µg/mL; in [3], 0.5 µg/mL; in experiment [4], 1 µg/mL; in experiment [5], 0.5 µg/mL; in experiment [6], 8 µg/mL. In addition, the MIC in experiment [7] was 2 µg/mL; in experiment [8] it was greater than 64 µg/mL; in [9], 4 µg/mL; in [10] it was 1 µg/mL; in experiment [11], 2 µg/mL; in experiment [12], 4 µg/mL. Moreover, the MIC is 0.125 µg/mL in experiment [13]; 1 µg/mL in experiment [14]; 0.5 µg/mL in [15]; 1 µg/mL in experiment [16]; 0.5 µg/mL in experiment [17].

(Values after ChEMBL document CHEMBL5537115, “New broad-spectrum and potent antibacterial agents with dual-targeting mechanism: Promoting FtsZ polymerization and disrupting bacterial membranes” (Eur J Med Chem, 2024).)
